Experimental data published in article PMC4440766, “Detection of Peptide-Based Nanoparticles in Blood Plasma by ELISA” (PLoS ONE, 2015).

Experiments:
[1] = LC/MS quantification of peptide 5A in blood plasma of nanoparticle injected rats; assay type: in vivo, Wistar rats; conditions: same rat plasma samples
Experimental: The acrylamide based nanoparticles containing peptide 5A were injected in the lateral tail vein of 3 Wistar rats at a concentration of 17.25 mg of nanoparticle per kg of bodyweight, corresponding to 0.5 mg peptide 5A per kg of bodyweight. Blood samples were collected in lithium heparin plasma microtainer tubes (BD, Franklin Lakes, NJ). A small incision was made in the contralateral tail vein and the blood was collected directly into the tube. Immediately after collecting the blood, the tubes were manually inverted 8 times to ensure mixing with the anti-coagulant. Blood samples were stored on ice for up to 30 minutes before separating the plasma by centrifugation at 2000 g for 10 minutes. No hemolysis was observed. […]
Peptide 5A standards were prepared by spiking rat plasma with peptide 5A+B and subsequently reducing the disulfide bond between peptide 5A and 5B, yielding free peptide 5A as depicted in Fig 1. […] (Neither the peaks corresponding to the mass of peptide 5B nor the unreduced peptide 5A+B were analyzed, see LC-MS analysis section). […]
Plasma samples for LC/MS were prepared by adding 300 μL of 10 mM TCEP in loading mobile phase mix to 30 μL of sample. […] The filtrate was transferred to autosampler vials and analyzed or frozen at -80°C until analysis.
Samples with expected concentrations higher than the upper limit of quantification were diluted with rat plasma prior to sample preparation. […]

[2] = ELISA quantification of peptide 5A in blood plasma after intravenous injection of peptide 5A nanoparticles; assay type: in vivo, Wistar rats
Experimental: The acrylamide based nanoparticles containing peptide 5A were injected in the lateral tail vein of 3 Wistar rats at a concentration of 17.25 mg of nanoparticle per kg of bodyweight, corresponding to 0.5 mg peptide 5A per kg of bodyweight. Blood samples were collected in lithium heparin plasma microtainer tubes (BD, Franklin Lakes, NJ). A small incision was made in the contralateral tail vein and the blood was collected directly into the tube. Immediately after collecting the blood, the tubes were manually inverted 8 times to ensure mixing with the anti-coagulant. Blood samples were stored on ice for up to 30 minutes before separating the plasma by centrifugation at 2000 g for 10 minutes. No hemolysis was observed.
Samples were collected from each animal immediately after injection (time point 0) and at 15, 30, 60, 120, 240, 480 minutes after injection. All plasma samples were stored at -80°C until further analysis.
The plasma samples were diluted 1/500 in PBS, based on the range of the standard curve and the expected initial plasma concentrations. Streptavidin coated ELISA 96-well microplates (Steffens Biotechnische Analysen, Germany) were rinsed with 100 μl PBS per well and incubated with plasma samples in duplicate, for one hour at room temperature. After washing the wells three times with PBS, the carboxyfluorescein group present on the reporter peptide was detected by incubating with monoclonal (mAb) mouse-anti-fluorescein peroxidase-conjugated IgG (Dianova, Hamburg, Germany) diluted 1:100,000 in PBS with 0.1% BSA for one hour. Subsequently, the wells were washed three times with PBS and incubated with soluble high sensitivity TMB (SDT, Baesweiler, Germany) for 10 minutes in the dark. The enzymatic peroxidase reaction was stopped with 1 M HCl and absorbance at 450 nm was measured on a VICTOR X3 Multilabel Plate Reader (Perkin Elmer, Waltham, MA). All incubations were performed at room temperature on a plate shaker at 650 rpm. The wells were washed with PBS three times both after sample and antibody incubation. The TMB reaction was performed in the dark for 10 minutes. […] The absorbance at 450 nm of the negative controls was considered as background and subtracted from the absorbance of the plasma samples.
Free peptide 5A was used as a positive control in the ELISA described above with a lower limit of detection of 1 ng/mL (data not shown). Nanoparticles containing a known concentration of peptide 5A, were used to generate a standard curve for the quantification of blood plasma samples. The standard curve data were fitted to a Hill curve using Graphpad Prism (Graphpad Software, La Jolla, CA) and the Hill equation was used to calculate the concentration of peptide 5A in blood plasma samples from the absorbance at 450 nm (See S1 Table).

[3] = i.v. nanoparticles 17.25 mg/kg = 0.5 mg peptide 5A per kg, Wistar rats, n = 3

Q: For “napvsipqKGGC [peptide 5A, reporter peptide napvsipqKGGC functionalized with biotin and carboxyfluorescein, attached to nanoparticles]”, which “factor by which plasma concentrations measured by LC/MS were higher than by ELISA” value [1] is on record?
A: ~4

Q: And the “peptide 5A plasma concentration (ELISA), highest concentration” value ([2]; 15 minutes after injection, i.v. lateral tail vein, nanoparticles 17.25 mg/kg = 0.5 mg peptide 5A per kg, male Wistar rats, plasma diluted 1/500 in PBS, mean ± S.E.M., 3 animals)?
A: 2706 ± 466 ng/mL

Q: And the “time after injection up to which the peptide was detected in plasma (ELISA)” value [2, 3]?
A: up to 2 hours

Q: What about the “time of highest plasma concentration (ELISA)” value [2, 3] of the same substance?
A: 15 min

Q: What about the “peptide 5A plasma concentration (ELISA)” value ([2]; time point 0 (immediately after injection), i.v. lateral tail vein, nanoparticles 17.25 mg/kg = 0.5 mg peptide 5A per kg, male Wistar rats, plasma diluted 1/500 in PBS, mean ± S.E.M., 3 animals) of the same substance?
A: 1661 ± 514 ng/mL
